According to article PMC11079024, “Identification of a family of species-selective complex I inhibitors as potential anthelmintics” (Nature Communications, 2024):

Legend:
[1] = system: L1 P. pacificus (PS312); assay: Liquid development and viability assay, P. pacificus; type: cell-based, Pristionchus pacificus; conditions: liquid growth and development assay, 1 = like DMSO control, 0 = death
Text: (§1) Supplementary Figure 9. Class A, B, and C benzimidazoles inhibit complex I of several Clade V nematode species in vitro. […]
(§2) against the in vitro complex I activity from C. elegans, C. briggsae, P. pacificus, and P. hermaphrodita […]
(§3) L1 C. elegans (N2), C. briggsae (AF16), and P. pacificus (PS312) in a nematode liquid growth and development assay. The colour-coded scale denotes the viability of nematodes following drug treatment relative to DMSO controls; white/pale-yellow indicates nematode growth and viability similar to DMSO controls and red indicates nematode death and arrested development. Data are the mean of at least three biological replicates. Due to seemingly poor growth in liquid culture, P. hermaphrodita was not tested in the liquid viability and development assay.
(§4) Supplementary Figure 9 (continued). Davie et al.

[2] = system: L1 C. briggsae (AF16); assay: Liquid development and viability assay, C. briggsae; type: cell-based, Caenorhabditis briggsae; conditions: liquid growth and development assay, 1 = like DMSO control, 0 = death
Text: as §1, §2, §3, §4

[3] = biological target: H. sapiens (HEK293 cells) complex I (Homo sapiens, UniProt O75251+O75306+P03886); assay: In vitro complex I activity assay, HEK293 cell mitochondria; type: biochemical
Chain of H. sapiens (HEK293 cells) complex I (O75251 39-213): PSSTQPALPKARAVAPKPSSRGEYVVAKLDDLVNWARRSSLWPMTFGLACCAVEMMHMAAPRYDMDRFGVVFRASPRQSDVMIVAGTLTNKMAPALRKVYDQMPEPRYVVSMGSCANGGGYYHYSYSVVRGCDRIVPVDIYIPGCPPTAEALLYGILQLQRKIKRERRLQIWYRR
Chain of H. sapiens (HEK293 cells) complex I (P03886 whole entry): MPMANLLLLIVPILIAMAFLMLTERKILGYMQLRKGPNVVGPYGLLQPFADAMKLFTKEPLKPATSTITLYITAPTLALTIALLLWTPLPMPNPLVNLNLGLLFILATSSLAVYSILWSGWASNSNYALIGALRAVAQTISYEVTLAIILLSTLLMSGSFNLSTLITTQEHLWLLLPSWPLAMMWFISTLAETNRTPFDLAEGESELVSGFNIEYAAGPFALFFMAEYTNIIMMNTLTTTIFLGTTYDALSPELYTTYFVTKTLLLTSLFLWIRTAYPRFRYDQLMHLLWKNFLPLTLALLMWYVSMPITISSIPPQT
Chain of H. sapiens (HEK293 cells) complex I (O75306 34-463): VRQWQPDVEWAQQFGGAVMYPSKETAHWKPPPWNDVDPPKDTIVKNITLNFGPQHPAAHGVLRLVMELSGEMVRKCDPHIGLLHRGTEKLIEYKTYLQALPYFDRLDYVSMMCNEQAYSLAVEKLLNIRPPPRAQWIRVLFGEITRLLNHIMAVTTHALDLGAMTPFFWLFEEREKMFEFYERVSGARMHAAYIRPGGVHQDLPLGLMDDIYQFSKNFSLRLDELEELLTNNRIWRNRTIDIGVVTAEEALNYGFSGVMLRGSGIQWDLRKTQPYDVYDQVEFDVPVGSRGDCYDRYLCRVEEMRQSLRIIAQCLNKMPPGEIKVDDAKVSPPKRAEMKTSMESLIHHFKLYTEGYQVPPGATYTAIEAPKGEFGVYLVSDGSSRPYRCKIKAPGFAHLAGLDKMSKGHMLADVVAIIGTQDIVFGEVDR

## Cc1nc2ccccc2n1Cc1ccc(Cl)cc1 [STK697993]
[1]; 2 µM
  viability score (0-1) relative to DMSO controls: 1.000
[1]; 3.9 µM
  viability score (0-1) relative to DMSO controls: 1.000
[1]; 15.6 µM
  viability score (0-1) relative to DMSO controls: 0.943
[1]; 31.3 µM
  viability score (0-1) relative to DMSO controls: 0.0076
[1]; 62.5 µM
  viability score (0-1) relative to DMSO controls: 0.000
[1]; 125 µM
  viability score (0-1) relative to DMSO controls: 0.007
[1]; 250 µM
  viability score (0-1) relative to DMSO controls: 0.026
[2]; 2 µM
  viability score (0-1) relative to DMSO controls: 1.000
[2]; 3.9 µM
  viability score (0-1) relative to DMSO controls: 1.000
[2]; 15.6 µM
  viability score (0-1) relative to DMSO controls: 1.000
[2]; 31.3 µM
  viability score (0-1) relative to DMSO controls: 0.341
[2]; 62.5 µM
  viability score (0-1) relative to DMSO controls: 0.009
[2]; 125 µM
  viability score (0-1) relative to DMSO controls: 0.017
[2]; 250 µM
  viability score (0-1) relative to DMSO controls: 0.008

## CC(C)Cc1ccc(C(C)c2nc3ccccc3n2C)cc1 (stereo not drawn) [NPD8790]
[3]; H. sapiens (HEK293 cells) mitochondria, 0.06 µM, Mean of replicates, read-out: in vitro complex I activity relative to solvent control
  remaining activity at 0.06 µM: 90.2%
[3]; H. sapiens (HEK293 cells) mitochondria, 0.13 µM, Mean of replicates, read-out: in vitro complex I activity relative to solvent control
  remaining activity at 0.13 µM: 78.3%
[3]; H. sapiens (HEK293 cells) mitochondria, 0.313 µM, Mean of replicates, read-out: in vitro complex I activity relative to solvent control
  remaining activity at 0.313 µM: 76.7%
[3]; H. sapiens (HEK293 cells) mitochondria, 0.625 µM, Mean of replicates, read-out: in vitro complex I activity relative to solvent control
  remaining activity at 0.625 µM: 129%
[3]; H. sapiens (HEK293 cells) mitochondria, 1.5 µM, Mean of replicates, read-out: in vitro complex I activity relative to solvent control
  remaining activity at 1.5 µM: 95.7%
[3]; H. sapiens (HEK293 cells) mitochondria, 3 µM, Mean of replicates, read-out: in vitro complex I activity relative to solvent control
  remaining activity at 3 µM: 102%
[3]; H. sapiens (HEK293 cells) mitochondria, 15 µM, Mean of replicates, read-out: in vitro complex I activity relative to solvent control
  remaining activity at 15 µM: 85.1%
[3]; H. sapiens (HEK293 cells) mitochondria, 37.5 µM, Mean of replicates, read-out: in vitro complex I activity relative to solvent control
  remaining activity at 37.5 µM: 52.8%
[3]; H. sapiens (HEK293 cells) mitochondria, 75 µM, Mean of replicates, read-out: in vitro complex I activity relative to solvent control
  remaining activity at 75 µM: 61.5%
[3]; mitochondria purified from HEK293 cells
  IC50: > 75 µM
